Results as given in ChEMBL document CHEMBL4715723, “Discovery and development of benzo-[1,2,4]-triazolo-[1,4]-oxazepine GPR142 agonists for the treatment of diabetes” (Bioorg Med Chem Lett, 2016).
Calls of active or inactive are those of the source. The rule behind the calls is not given here.

Assays:
[1] = target: T1, Probable G-protein coupled receptor 142 (Homo sapiens, UniProt Q7Z601); assay: Agonist activity at human GPR142 expressed in CHO cells measured for 3 mins by Fluo-4M dye based FLIPR assay; assay type: cell-based; conditions: read-out: IC50 (the source's name)
T1 sequence (Q7Z601 whole entry): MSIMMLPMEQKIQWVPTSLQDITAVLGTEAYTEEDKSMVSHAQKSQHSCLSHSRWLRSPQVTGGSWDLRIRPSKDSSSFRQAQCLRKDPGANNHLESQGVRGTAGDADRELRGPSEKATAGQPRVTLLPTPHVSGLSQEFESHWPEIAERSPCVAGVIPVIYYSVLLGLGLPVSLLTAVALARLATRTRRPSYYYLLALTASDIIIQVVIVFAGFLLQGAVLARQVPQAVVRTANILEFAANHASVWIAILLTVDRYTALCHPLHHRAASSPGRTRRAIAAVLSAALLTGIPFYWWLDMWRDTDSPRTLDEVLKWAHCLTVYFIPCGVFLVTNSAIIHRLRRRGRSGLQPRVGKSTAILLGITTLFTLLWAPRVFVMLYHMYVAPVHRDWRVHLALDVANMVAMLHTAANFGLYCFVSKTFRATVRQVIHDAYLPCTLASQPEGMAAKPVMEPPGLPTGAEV

[2] = target: T2, Probable G-protein coupled receptor 142 (Mus musculus, UniProt Q7TQN9); assay: Agonist activity at mouse GPR142 expressed in CHO cells measured for 3 mins by Fluo-4M dye based FLIPR assay; assay type: cell-based; conditions: read-out: IC50 (the source's name)
T2 sequence (Q7TQN9 whole entry): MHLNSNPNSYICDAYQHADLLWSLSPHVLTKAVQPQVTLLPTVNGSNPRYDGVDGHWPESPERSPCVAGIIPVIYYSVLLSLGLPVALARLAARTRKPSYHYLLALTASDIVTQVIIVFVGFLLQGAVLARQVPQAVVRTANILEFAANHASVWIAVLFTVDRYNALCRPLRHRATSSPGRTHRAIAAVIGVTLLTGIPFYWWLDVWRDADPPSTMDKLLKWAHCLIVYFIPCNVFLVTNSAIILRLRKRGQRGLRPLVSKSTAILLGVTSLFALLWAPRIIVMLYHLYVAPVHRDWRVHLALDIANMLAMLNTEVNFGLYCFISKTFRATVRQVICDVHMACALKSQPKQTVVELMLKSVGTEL

[3] = Half life in rat at 2 mg/kg, po or 1 mg/kg, iv; assay type: ADME, organism-based; conditions: in vivo
[4] = Clearance in rat at 2 mg/kg, po or 1 mg/kg, iv; assay type: ADME, organism-based; conditions: in vivo
[5] = Volume of distribution at steady state in rat at 2 mg/kg, po or 1 mg/kg, iv; assay type: ADME, organism-based; conditions: in vivo, read-out: Vdss
Cytochrome P450 2D6 = Cytochrome P450 2D6 (Homo sapiens, UniProt P10635); assay: Inhibition of human liver microsomes CYP2D6 using dextromethorphan as substrate by MUX-MS/MS analysis; assay type: ADME, Microsome
Cytochrome P450 3A4 = Cytochrome P450 3A4 (Homo sapiens, UniProt P08684); assay: Inhibition of human liver microsomes CYP3A4 using testosterone as substrate by MUX-MS/MS analysis; assay type: ADME, Microsome
Cytochrome P450 2C9 = Cytochrome P450 2C9 (Homo sapiens, UniProt P11712); assay: Inhibition of human liver microsomes CYP2C9 using diclofenac as substrate by MUX-MS/MS analysis; assay type: ADME, Microsome
Mus musculus [6] = assay: Antidiabetic activity in […] mouse harboring GPR142 deficient assessed as reduction in dextrose-induced blood glucose peak at 30 mg/kg, po administered before dextrose stimulation and measured upto 120 mins after dextrose administration by OGTT assay; assay type: functional, organism-based; conditions: time min <=120
Mus musculus [7] = assay: Antidiabetic activity in […] mouse assessed as reduction in dextrose-induced blood glucose peak administered po before dextrose stimulation and measured upto 120 mins after dextrose administration by OGTT assay; assay type: functional, organism-based; conditions: time min <=120
[8] = Oral bioavailability in rat at 2 mg/kg; assay type: ADME, organism-based; conditions: in vivo
[9] = target: Voltage-gated inwardly rectifying potassium channel KCNH2 (Homo sapiens, UniProt Q12809); assay: Inhibition of human ERG expressed in HEK293 cells assessed as reduction in S35-MK-0499 binding; assay type: cell-based
[10] = Protein binding in rat plasma assessed as unbound fraction; assay type: ADME, cell-free

Sequence of Cytochrome P450 3A4 (P08684 whole entry): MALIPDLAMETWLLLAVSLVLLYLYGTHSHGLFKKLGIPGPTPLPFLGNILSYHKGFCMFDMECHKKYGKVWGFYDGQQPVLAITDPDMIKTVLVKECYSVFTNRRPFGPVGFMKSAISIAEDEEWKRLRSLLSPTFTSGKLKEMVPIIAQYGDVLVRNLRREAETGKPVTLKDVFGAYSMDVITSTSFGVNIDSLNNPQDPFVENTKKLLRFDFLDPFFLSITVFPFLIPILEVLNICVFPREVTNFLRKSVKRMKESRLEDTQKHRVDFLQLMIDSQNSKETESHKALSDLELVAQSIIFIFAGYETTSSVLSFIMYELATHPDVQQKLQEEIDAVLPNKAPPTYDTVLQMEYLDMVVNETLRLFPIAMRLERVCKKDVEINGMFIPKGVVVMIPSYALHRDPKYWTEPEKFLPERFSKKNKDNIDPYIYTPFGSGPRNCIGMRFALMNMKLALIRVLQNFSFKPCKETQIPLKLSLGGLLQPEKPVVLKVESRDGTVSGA
Sequence of Voltage-gated inwardly rectifying potassium channel KCNH2 (Q12809 whole entry): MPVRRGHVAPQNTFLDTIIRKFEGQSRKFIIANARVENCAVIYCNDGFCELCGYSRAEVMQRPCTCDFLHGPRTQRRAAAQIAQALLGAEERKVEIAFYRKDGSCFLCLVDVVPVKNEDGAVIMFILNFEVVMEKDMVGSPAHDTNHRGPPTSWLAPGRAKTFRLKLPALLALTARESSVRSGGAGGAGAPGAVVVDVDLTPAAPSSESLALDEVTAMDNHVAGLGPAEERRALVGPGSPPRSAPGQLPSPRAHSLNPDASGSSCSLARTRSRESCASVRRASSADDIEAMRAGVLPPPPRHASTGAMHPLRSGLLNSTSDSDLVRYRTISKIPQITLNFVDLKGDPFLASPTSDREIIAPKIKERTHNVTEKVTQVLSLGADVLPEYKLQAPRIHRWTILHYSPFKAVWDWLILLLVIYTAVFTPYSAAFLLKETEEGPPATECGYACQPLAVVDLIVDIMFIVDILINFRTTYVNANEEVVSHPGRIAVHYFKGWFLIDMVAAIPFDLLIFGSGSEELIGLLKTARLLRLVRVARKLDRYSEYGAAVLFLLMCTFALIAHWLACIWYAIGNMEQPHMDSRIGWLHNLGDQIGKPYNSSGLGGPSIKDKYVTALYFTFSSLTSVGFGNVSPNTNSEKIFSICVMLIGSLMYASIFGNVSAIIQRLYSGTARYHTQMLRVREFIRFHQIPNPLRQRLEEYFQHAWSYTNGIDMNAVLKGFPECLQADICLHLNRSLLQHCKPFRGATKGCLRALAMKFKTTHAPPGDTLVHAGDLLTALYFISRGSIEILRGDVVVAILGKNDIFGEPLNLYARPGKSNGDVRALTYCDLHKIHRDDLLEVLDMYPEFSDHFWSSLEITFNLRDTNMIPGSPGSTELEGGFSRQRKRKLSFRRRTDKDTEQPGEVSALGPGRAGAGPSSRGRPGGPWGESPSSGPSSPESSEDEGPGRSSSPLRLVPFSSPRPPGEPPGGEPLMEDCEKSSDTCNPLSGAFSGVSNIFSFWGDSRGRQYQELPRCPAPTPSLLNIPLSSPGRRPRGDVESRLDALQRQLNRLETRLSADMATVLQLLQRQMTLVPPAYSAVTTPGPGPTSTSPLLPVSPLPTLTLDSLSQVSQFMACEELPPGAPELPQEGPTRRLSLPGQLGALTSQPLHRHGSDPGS
Sequence of Cytochrome P450 2C9 (P11712 whole entry): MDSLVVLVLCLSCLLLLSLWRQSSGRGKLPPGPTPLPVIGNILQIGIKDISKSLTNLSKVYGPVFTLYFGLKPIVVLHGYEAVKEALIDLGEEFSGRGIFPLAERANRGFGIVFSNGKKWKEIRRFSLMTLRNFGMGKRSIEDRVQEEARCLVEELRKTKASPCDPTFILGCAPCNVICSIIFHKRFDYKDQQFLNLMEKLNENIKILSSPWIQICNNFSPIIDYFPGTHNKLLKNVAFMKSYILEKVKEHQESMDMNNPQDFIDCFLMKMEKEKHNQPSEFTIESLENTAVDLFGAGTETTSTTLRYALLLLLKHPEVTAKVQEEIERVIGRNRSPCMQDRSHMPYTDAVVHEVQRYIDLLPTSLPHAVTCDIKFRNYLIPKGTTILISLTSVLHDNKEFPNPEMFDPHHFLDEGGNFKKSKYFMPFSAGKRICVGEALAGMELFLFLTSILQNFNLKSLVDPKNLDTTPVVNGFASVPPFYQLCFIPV
Sequence of Cytochrome P450 2D6 (P10635 whole entry): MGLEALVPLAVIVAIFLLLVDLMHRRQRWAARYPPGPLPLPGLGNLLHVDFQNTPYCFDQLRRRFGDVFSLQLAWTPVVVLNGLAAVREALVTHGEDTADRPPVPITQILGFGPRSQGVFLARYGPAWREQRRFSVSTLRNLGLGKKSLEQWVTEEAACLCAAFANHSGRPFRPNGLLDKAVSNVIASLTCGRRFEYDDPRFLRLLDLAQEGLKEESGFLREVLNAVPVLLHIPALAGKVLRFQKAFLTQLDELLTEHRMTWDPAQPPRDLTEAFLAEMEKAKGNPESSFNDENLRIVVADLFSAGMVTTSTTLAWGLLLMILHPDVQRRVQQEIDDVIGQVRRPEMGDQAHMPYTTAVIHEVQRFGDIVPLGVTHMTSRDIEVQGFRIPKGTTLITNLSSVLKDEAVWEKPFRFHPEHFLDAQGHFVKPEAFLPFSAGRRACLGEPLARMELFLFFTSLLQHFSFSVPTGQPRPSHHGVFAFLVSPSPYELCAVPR

Structure (SMILES)	EC50 [1] [nM]	EC50 [2] [nM]	IC50 (Cytochrome P450 2D6) [nM]	IC50 (Cytochrome P450 3A4) [nM]	IC50 (Cytochrome P450 2C9) [nM]	other results
O=C(Nc1ccc(Cl)c(Cl)c1)N1CCc2ccc(-c3ccncc3)cc2C1	1850	1050	–	–	–	–
COc1ccccc1NC(=O)N1CCOc2ccc(-c3ccncc3)cc2C1	517	92	–	–	–	–
COc1cccc(NC(=O)N2CCOc3ccc(-c4ccncc4)cc3C2)c1	249	305	–	–	–	–
O=S(=O)(Cc1cccc(C(F)(F)F)c1)N1CCOc2ccc(-c3ccncc3)cc2C1	2290	157	–	–	–	–
O=C(Nc1cccc(Cl)c1Cl)N1CCOc2ccc(-c3ccncc3)cc2C1	708	157	–	–	–	–
CN1CCN(C(=O)Nc2ccc(Cl)c(Cl)c2)Cc2cc(-c3ccncc3)ccc21	> 20000	2570	–	–	–	–
Cc1cc(-c2ccc3c(c2)-c2nnc(Oc4ccccc4Cl)n2CCO3)ccn1	102	–	24300	> 50000	> 50000	IC50 [9]: 3510 nM
N#Cc1cccc(NC(=O)N2CCOc3ccc(-c4ccnc(N)c4)cc3C2)c1	810	448	–	–	–	–
Cc1cc(-c2ccc3c(c2)-c2nnc(Oc4cccc(Cl)c4)n2CCO3)ccn1	58	–	7020	> 50000	> 50000	IC50 [9]: 931 nM
N#Cc1cccc(NC(=O)N2CCOc3ccc(-n4ccnc4)cc3C2)c1	110	–	–	–	–	–
O=C(Nc1ccccc1)N1CCOc2ccc(-c3ccncc3)cc2C1	793	851	–	–	–	–

Now from value to compound, other results behind:

EC50 [1] [nM]	EC50 [2] [nM]	IC50 (Cytochrome P450 2D6) [nM]	IC50 (Cytochrome P450 3A4) [nM]	IC50 (Cytochrome P450 2C9) [nM]	Structure (SMILES)	other results
1220	2610	–	–	–	O=C(Nc1ccc(F)cc1)N1CCOc2ccc(-c3ccncc3)cc2C1	–
63	–	802	1610	934	FC(F)(F)Oc1cccc(Nc2nnc3n2CCOc2ccc(-c4ccncc4)cc2-3)c1	half-life [3]: 1 h; clearance [4]: 23.9 mL/min/kg; Vd [5]: 2.2 L/kg; Activity (Mus musculus [6]): inactive; Activity (Mus musculus [7]): Dose-dependent effect; bioavailability [8]: 40%; IC50 [9]: 605 nM; fraction unbound [10]: 0.0041
63	–	326	48300	1960	Cc1cc(-c2ccc3c(c2)-c2nnc(Nc4cccc(C(F)(F)F)c4)n2CCO3)ccn1	IC50 [9]: 388 nM
–	–	792	11800	3440	Cc1cc(-c2ccc3c(c2)-c2nnc(Nc4cccc(Cl)c4)n2CCO3)ccn1	half-life [3]: 2.5 h; clearance [4]: 7.8 mL/min/kg; Vd [5]: 1.9 L/kg; bioavailability [8]: 40%; fraction unbound [10]: 0.0337
140	138	76000	–	–	O=C(Nc1ccc(Cl)c(Cl)c1)N1CCOc2ccc(-c3ccncc3)cc2C1	half-life [3]: 0.71 h; clearance [4]: 88.6 mL/min/kg; Vd [5]: 3.4 L/kg; bioavailability [8]: 6%; IC50 ([9]; hek293): 2030 nM; fraction unbound [10]: 0.0015
13100	604	–	–	–	O=C(Nc1ccccc1F)N1CCOc2ccc(-c3ccncc3)cc2C1	–
89	–	8650	> 50000	26100	Cc1cc(-c2ccc3c(c2)-c2nnc(Oc4ccccc4OC(F)(F)F)n2CCO3)ccn1	IC50 [9]: 2840 nM
394	1180	–	–	–	COc1cccc(NC(=O)N2CCOc3ccc(-c4ccncc4C)cc3C2)c1	–
839	590	–	–	–	O=C(Nc1ccc(Cl)c(Cl)c1)N1CCCc2ccc(-c3ccncc3)cc2C1	–
> 20000	4500	–	–	–	CCCCN1CCN(C(=O)Nc2ccc(Cl)c(Cl)c2)Cc2cc(-c3ccncc3)ccc21	–
374	–	–	–	–	COc1cccc(NC(=O)N2CCOc3ccc(-c4ccnc(C)c4)cc3C2)c1	–
78	–	1950	> 50000	14300	Cc1cc(-c2ccc3c(c2)-c2nnc(Oc4cccc(OC(F)(F)F)c4)n2CCO3)ccn1	IC50 [9]: 693 nM
